Laboratory results published in patent publication US20210267944A1 (BioXcel Therapeutics, Inc., priority 2018, published 2021).
Where a name gives a salt, the structure may show the parent alone. Read-outs that look alike come from different tables or passages of the source.

Details: for Diastolic blood pressure Max / Diastolic blood pressure Mean ± SD / Diastolic blood pressure Median / Diastolic blood pressure Min / Pulse rate, Max / Pulse rate, Mean ± SD / Pulse rate, Median / Pulse rate, Min / Respiration rate, Max / Respiration rate, Mean ± SD / Respiration rate, Median / Respiration rate, Min / Systolic blood pressure, Max / Systolic blood pressure, Mean ± SD / Systolic blood pressure, Median / Systolic blood pressure, Min: SDAT patients, IV infusion
Protocol: Study drug IV infusion was to be stopped at any time if any of the following occurred: • There was more than 20 mm Hg decrease in systolic or diastolic blood pressure. • There was an isolated drop in Systolic BP<100 mm of Hg. • There was an isolated drop Diastolic BP<60 mm of Hg. • There was a decrease in heart rate of 20 beats per minute or a drop below 50 beats per minute. • Attainment of a RASS of −1 at the end of each 30 minutes infusion period.
Return to baseline parameters was defined as BP falling within 15 mm of Hg of baseline reading prior to drug administration or HR falling within 10 beats per minute of baseline reading prior to drug administration.

Cc1cccc([C@H](C)c2cnc[nH]2)c1C [dexmedetomidine hydrochloride]
all the vital signs values (SDAT): within clinically acceptable limits
Diastolic blood pressure Max (00:00 Hr): 90 mm of Hg
Diastolic blood pressure Mean ± SD (00:00 Hr): 80.9 ± 9.87 mm of Hg
Diastolic blood pressure Median (00:00 Hr): 83.5 mm of Hg
Diastolic blood pressure Min (00:00 Hr): 64 mm of Hg
Pulse rate, Max (00:00 Hr): 91 beats/min
Pulse rate, Mean ± SD (00:00 Hr): 79.0 ± 9.02 beats/min
Pulse rate, Median (00:00 Hr): 78.0 beats/min
Pulse rate, Min (00:00 Hr): 64 beats/min
Respiration rate, Max (00:00 Hr): 26 breaths/min
Respiration rate, Mean ± SD (00:00 Hr): 19.6 ± 2.50 breaths/min
Respiration rate, Median (00:00 Hr): 19.5 breaths/min
Respiration rate, Min (00:00 Hr): 17 breaths/min
Systolic blood pressure, Max (00:00 Hr): 169 mm of Hg
Systolic blood pressure, Mean ± SD (00:00 Hr): 143.2 ± 13.60 mm of Hg
Systolic blood pressure, Median (00:00 Hr): 140.0 mm of Hg
Systolic blood pressure, Min (00:00 Hr): 125 mm of Hg
Diastolic blood pressure Max (00:15 Hr): 92 mm of Hg
Diastolic blood pressure Mean ± SD (00:15 Hr): 82.1 ± 8.46 mm of Hg
Diastolic blood pressure Median (00:15 Hr): 84.0 mm of Hg
Diastolic blood pressure Min (00:15 Hr): 70 mm of Hg
Pulse rate, Max (00:15 Hr): 89 beats/min
Pulse rate, Mean ± SD (00:15 Hr): 78.2 ± 9.85 beats/min
Pulse rate, Median (00:15 Hr): 80.0 beats/min
Pulse rate, Min (00:15 Hr): 57 beats/min
Respiration rate, Max (00:15 Hr): 26 breaths/min
Respiration rate, Mean ± SD (00:15 Hr): 18.3 ± 3.20 breaths/min
Respiration rate, Median (00:15 Hr): 17.0 breaths/min
Respiration rate, Min (00:15 Hr): 15 breaths/min
Systolic blood pressure, Max (00:15 Hr): 155 mm of Hg
Systolic blood pressure, Mean ± SD (00:15 Hr): 138.0 ± 10.35 mm of Hg
Systolic blood pressure, Median (00:15 Hr): 134.5 mm of Hg
Systolic blood pressure, Min (00:15 Hr): 122 mm of Hg
Diastolic blood pressure Max (00:30 Hr): 89 mm of Hg
Diastolic blood pressure Mean ± SD (00:30 Hr): 80.3 ± 7.99 mm of Hg
Diastolic blood pressure Median (00:30 Hr): 82.5 mm of Hg
Diastolic blood pressure Min (00:30 Hr): 66 mm of Hg
Pulse rate, Max (00:30 Hr): 94 beats/min
Pulse rate, Mean ± SD (00:30 Hr): 80.5 ± 10.43 beats/min
Pulse rate, Median (00:30 Hr): 76.5 beats/min
Pulse rate, Min (00:30 Hr): 64 beats/min
Respiration rate, Max (00:30 Hr): 24 breaths/min
Respiration rate, Mean ± SD (00:30 Hr): 18.1 ± 2.73 breaths/min
Respiration rate, Median (00:30 Hr): 18.0 breaths/min
Respiration rate, Min (00:30 Hr): 13 breaths/min
Systolic blood pressure, Max (00:30 Hr): 155 mm of Hg
Systolic blood pressure, Mean ± SD (00:30 Hr): 135.9 ± 10.05 mm of Hg
Systolic blood pressure, Median (00:30 Hr): 133.5 mm of Hg
Systolic blood pressure, Min (00:30 Hr): 120 mm of Hg
Diastolic blood pressure Max (00:45 Hr): 86 mm of Hg
Diastolic blood pressure Mean ± SD (00:45 Hr): 76.4 ± 9.42 mm of Hg
Diastolic blood pressure Median (00:45 Hr): 79.0 mm of Hg
Diastolic blood pressure Min (00:45 Hr): 62 mm of Hg
Pulse rate, Max (00:45 Hr): 90 beats/min
Pulse rate, Mean ± SD (00:45 Hr): 76.0 ± 9.48 beats/min
Pulse rate, Median (00:45 Hr): 77.0 beats/min
Pulse rate, Min (00:45 Hr): 58 beats/min
Respiration rate, Max (00:45 Hr): 20 breaths/min
Respiration rate, Mean ± SD (00:45 Hr): 18.1 ± 1.91 breaths/min
Respiration rate, Median (00:45 Hr): 18.0 breaths/min
Respiration rate, Min (00:45 Hr): 15 breaths/min
Systolic blood pressure, Max (00:45 Hr): 160 mm of Hg
Systolic blood pressure, Mean ± SD (00:45 Hr): 138.3 ± 14.29 mm of Hg
Systolic blood pressure, Median (00:45 Hr): 137.0 mm of Hg
Systolic blood pressure, Min (00:45 Hr): 118 mm of Hg
Diastolic blood pressure Max (01:00 Hr): 90 mm of Hg
Diastolic blood pressure Mean ± SD (01:00 Hr): 74.5 ± 8.97 mm of Hg
Diastolic blood pressure Median (01:00 Hr): 73.5 mm of Hg
Diastolic blood pressure Min (01:00 Hr): 63 mm of Hg
Pulse rate, Max (01:00 Hr): 89 beats/min
Pulse rate, Mean ± SD (01:00 Hr): 75.3 ± 10.08 beats/min
Pulse rate, Median (01:00 Hr): 74.0 beats/min
Pulse rate, Min (01:00 Hr): 60 beats/min
Respiration rate, Max (01:00 Hr): 20 breaths/min
Respiration rate, Mean ± SD (01:00 Hr): 18.1 ± 1.73 breaths/min
Respiration rate, Median (01:00 Hr): 18.0 breaths/min
Respiration rate, Min (01:00 Hr): 15 breaths/min
Systolic blood pressure, Max (01:00 Hr): 160 mm of Hg
Systolic blood pressure, Mean ± SD (01:00 Hr): 134.4 ± 15.76 mm of Hg
Systolic blood pressure, Median (01:00 Hr): 133.0 mm of Hg
Systolic blood pressure, Min (01:00 Hr): 110 mm of Hg
Diastolic blood pressure Max (01:15 Hr): 84 mm of Hg
Diastolic blood pressure Mean ± SD (01:15 Hr): 74.6 ± 10.17 mm of Hg
Diastolic blood pressure Median (01:15 Hr): 79.5 mm of Hg
Diastolic blood pressure Min (01:15 Hr): 61 mm of Hg
Pulse rate, Max (01:15 Hr): 94 beats/min
Pulse rate, Mean ± SD (01:15 Hr): 73.4 ± 11.56 beats/min
Pulse rate, Median (01:15 Hr): 71.5 beats/min
Pulse rate, Min (01:15 Hr): 58 beats/min
Respiration rate, Max (01:15 Hr): 20 breaths/min
Respiration rate, Mean ± SD (01:15 Hr): 18.4 ± 2.20 breaths/min
Respiration rate, Median (01:15 Hr): 19.5 breaths/min
